Laboratory results taken from patent US6689788B1, “Method and composition for treatment of inflammatory bowel disease” (University of Florida, priority 2000, dated 2004).
Entries after “also recorded” stand apart in the source; their conditions may differ.

Columns and labels:
[1] = tested on: acetic acid-induced colitis; experiment: acetic acid-induced colitis in the rat, test drug i.r. 30 minutes before acetic acid; format: in vivo; conditions: for damage in the colons: 650 μmol/kg i.r. 30 minutes before acetic acid, colons assessed 24 hours later
Source text: A typical model of IBD in acetic acid-induced colitis in the rat has been described by Krawisz et al in Amer. J. Proc. Gastro. Col. Rec. Surg., Vol. 31, pages 11-18 (1980); and by Sharon et al in Gastroenterology, Vol. 88, pages 55-63 (1985) and Vol. 86, pages 453-460 (1984). Acetic acid-induced colitis is characterized by the movement of inflammatory cells into the colon, with the number of such cells in the mucosa being measured by the activity of myeloperoxidase, a marker enzyme for these cells. Positive desirable activity is indicated by a reduction in the high levels of myeloperoxidase caused by acetic acid. Typically, Sprague-Dawley rats from Charles River Laboratories, Portage, Mich. (either sex, weight approximately 250 g) are dosed with test compounds and controls. Thereafter, the rats are given an intracolonic enema of acetic acid which produces a severe inflammatory response in the colon of a healthy rat characterized by rectal bleeding, diarrhea, epithelial erosions and destructions of crypts and gland cells. Twenty-four hours later, the test and control animals are sacrificed and the distal ten centimeters of the colons are removed and opened longitudinally. The tissue lesions contained within the removed, opened section of the colons are scored. After the systematic evaluation of the impact of various fasting times, use of vehicles, the time interval between pre-treatment and administration of the acetic acid and altering the concentration of acetic acid, the final protocol for the experiments is to fast the rats for 30 hours in hanging wire cages, anesthetize the animals with sodium pentobarbital, administer the test drug 1 cc intrarectally (i.r.) either as a suspension or a solution in water, and to give the acetic acid (7.5% in water) 1 cc i.r. 30 minutes later. The rats are sacrificed 24 hours later and the colons are removed and assessed for damage.

[2] = tested on: acetic acid-induced colitis; experiment: reversal studies, compound given 30 minutes after 2.5% acetic acid; format: in vivo, rat
Source text: (§1) The lesions were apparently resolving and with some lamina proprial fibrosis and considerable hyperplasia of submucosal lymphoid tissue. […] This is a highly desirable property, as patients suffering from IBD are already anemic due to disease-related blood loss.

mice = conditions: mouse, in vivo
Source text: DFO and DFT given i.r. at a dose of 650 μmol/kg were ineffective. […] See, for example, FIGS. 7 and 8.

[3] = iron binding in a test tube; format: physicochemical
Source text: as §1

iron = iron chelator activity when given to rats; format: in vivo
Source text: as §1

SMILES	dose response study, prevention of severe lesions ([1]; 162.5 μmol/kg (41.5 mg/kg) at 1 cc i.r.)	damage in the colons [1]	head-to-head comparison with 5-ASA or its commercially available formulation (Rowasa) ([1]; compound 650 μmol/kg vs. 5-ASA/Rowasa 1742 μmol/kg)	lesions compared with the control group [2]	acute toxicity (mice)	iron binding [3]	activity as an iron chelator (iron; orally)	activity as an iron chelator (iron; subcutaneously (s.c.))
Cc1ccc(O)c(C2=NC(C(=O)O)CC2)c1 (stereo not shown) [2H-pyrrolecarboxylic acid, 3,4-dihydro-5-(2-hydroxy-5-methylphenyl)-2H-pyrrole-2-carboxylic acid]	severe lesions being prevented in a majority of rats	very little damage; also recorded: considerably less damage	far superior	less severe and less active	virtually non-toxic	binds iron remarkably well	inactive	inactive
CC(=O)N(O)CCCCCNC(=O)CCC(=O)N(O)CCCCCNC(=O)CCC(=O)N(O)CCCCCN [DFO, reference compound]		ineffective						
C[C@]1(C(=O)O)CSC(c2ncccc2O)=N1 [DFT, reference compound]		ineffective						
